Results taken from patent US11395857B2, “Radiolabeled melanocortin 1 receptor-specific alpha-melanocyte-stimulating hormone analogues for imaging or therapy” (PROVINCIAL HEALTH SERVICES AUTHORITY, priority 2018, dated 2022).
Read-outs that look alike come from different tables or passages of the source.

Columns and labels:
[1] = Biodistribution of 68Ga-labeled peptide in mice bearing B16F10 mouse melanoma; assay type: in vivo, C57BL/6J mice; details: iv, total radioactivity; for tissue uptake at 2 h: 2 h p.i. unblocked
Method: The B16-F10 melanoma cell line (Mus musculus) used in the tumor model was obtained commercially from ATTC (CRL-6475). Cells were cultured in Dulbecco's Modified Eagle's Medium (DMEM, StemCell Technologies) supplemented by 10% FBS, 100 U/mL penicillin and 100 μg/mL streptomycin at 37° C. in a humidified incubator containing 5% CO2. Cells grown to roughly 90% confluence were washed with sterile phosphate-buffered saline (lx PBS, pH 7.4), followed by trypsinization. For tumour implantation, C57BL/6J mice were anesthetized by inhalation with 2% isoflurane in 2.0 L/min of oxygen, 2×10^6 B16-F10 cells were inoculated subcutaneously on right dorsal flank. Mice were imaged or used in biodistribution studies once the tumour reached 6-8 mm in diameter.
Similar to PET/CT imaging, tumour-bearing mice were injected with 1-2 MBq of ^68Ga-labeled CCZ01099 via tail vein under anesthesia with or without co-injection of 0.5 mg of MC1R-specific inhibitor BMS 470539. At 1 or 2 h p.i., the mice were anesthetized again, and euthanized by CO2 inhalation. Blood was promptly withdrawn, and the organs of interest were harvested, rinsed with 1×PBS (pH 7.4), and blotted dry. Each organ was then weighed and the radioactivity of the collected tissue was measured using a Wallac WIZARD2 gamma counter (Perkin Elmer), normalized to the injected dose using a standard curve and expressed as the percentage of the injected dose per gram of tissue (% ID/g). Table 3 summarizes the biodistribution data of ^68Ga-labeled CCZ01099 at 1 and 2 h p.i., as well as 1 h p.i. with co-injection of 0.5 mg of MC1R-specific inhibitor BMS 470539. Minimal background tissue radioactivity accumulation was observed, except for kidney, which is expected as the radiolabeled peptides were cleared through the renal pathway.

B16-F10 tumours = assay: PET/CT imaging of B16-F10 tumour-bearing mice; assay type: in vivo, C57BL/6J mice
Method: PET imaging experiments were conducted using a preclinical micro PET/CT scanner (Siemens inveon). For static PET scan, each tumour bearing mouse was injected with 4-6 MBq of ^68Ga-labeled CCZ01099 via tail vein under anesthesia. After the injection, mice were allowed to recover and roam freely in their cages. At 1 or 2 h p.i., the mice were sedated again with 2% isoflurane inhalation and positioned in the scanner, and kept warm by a heating pad. A 10 min baseline CT scan using 60 kV X-rays at 500 μA was obtained for localization and attenuation correction after segmentation for reconstructing the PET images. A single 12 min static PET scan was acquired following the CT scan. The mice were euthanized using CO2 inhalation after imaging.

## CCCC[C@H](NC(=O)CN1CCC(NC(=O)CN2CCN(CC(=O)O)CCN(CC(=O)O)CCN(CC(=O)O)CC2)CC1)C(=O)N[C@H]1CC(=O)NCCCC[C@@H](C(N)=O)N(C)C(=O)[C@H](Cc2c[nH]c3ccccc23)N(C)C(=O)[C@H](CCCNC(=N)N)N(C)C(=O)[C@@H](Cc2ccccc2)NC(=O)[C@H](Cc2c[nH]cn2)N(C)C1=O [^68Ga-labeled CCZ01099, metal not drawn]
[1]; B16F10 tumour, 1 h p.i. unblocked, C57BL/6J mice, B16F10 melanoma, read-out: Biodistribution, B16F10 tumour
  tissue uptake at 1 h: 6.12 ± 1.43 %ID/g
[1]; B16F10 tumour, C57BL/6J mice, B16F10 melanoma, read-out: Biodistribution, B16F10 tumour
  tissue uptake at 2 h: 5.22 ± 1.3 %ID/g
[1]; C57BL/6J, B16F10 tumour, with BMS 470539 (MC1R-specific inhibitor), 0.5 mg co-injected, 1 h p.i. blocked, co-injection of 0.5 mg BMS 470539, read-out: Biodistribution, B16F10 tumour
  tissue uptake at 1 h: 0.6 ± 0.15 %ID/g
[1]; C57BL/6J, adrenal glands, with BMS 470539 (MC1R-specific inhibitor), 0.5 mg co-injected, 1 h p.i. blocked, co-injection of 0.5 mg BMS 470539, read-out: Biodistribution, Adrenal glands
  tissue uptake at 1 h: 0.45 ± 0.29 %ID/g
[1]; C57BL/6J, bone, with BMS 470539 (MC1R-specific inhibitor), 0.5 mg co-injected, 1 h p.i. blocked, co-injection of 0.5 mg BMS 470539, read-out: Biodistribution, Bone
  tissue uptake at 1 h: 0.17 ± 0.1 %ID/g
[1]; C57BL/6J, brain, with BMS 470539 (MC1R-specific inhibitor), 0.5 mg co-injected, 1 h p.i. blocked, co-injection of 0.5 mg BMS 470539, read-out: Biodistribution, Brain
  tissue uptake at 1 h: 0.03 ± 0.02 %ID/g
[1]; C57BL/6J, fat, with BMS 470539 (MC1R-specific inhibitor), 0.5 mg co-injected, 1 h p.i. blocked, co-injection of 0.5 mg BMS 470539, read-out: Biodistribution, Fat
  tissue uptake at 1 h: 0.04 ± 0.02 %ID/g
[1]; C57BL/6J, heart, with BMS 470539 (MC1R-specific inhibitor), 0.5 mg co-injected, 1 h p.i. blocked, co-injection of 0.5 mg BMS 470539, read-out: Biodistribution, Heart
  tissue uptake at 1 h: 0.13 ± 0.02 %ID/g
[1]; C57BL/6J, intestine, with BMS 470539 (MC1R-specific inhibitor), 0.5 mg co-injected, 1 h p.i. blocked, co-injection of 0.5 mg BMS 470539, read-out: Biodistribution, Intestine
  tissue uptake at 1 h: 0.17 ± 0.05 %ID/g
[1]; C57BL/6J, kidneys, with BMS 470539 (MC1R-specific inhibitor), 0.5 mg co-injected, 1 h p.i. blocked, co-injection of 0.5 mg BMS 470539, read-out: Biodistribution, Kidneys
  tissue uptake at 1 h: 2.62 ± 0.91 %ID/g
[1]; C57BL/6J, liver, with BMS 470539 (MC1R-specific inhibitor), 0.5 mg co-injected, 1 h p.i. blocked, co-injection of 0.5 mg BMS 470539, read-out: Biodistribution, Liver
  tissue uptake at 1 h: 0.38 ± 0.11 %ID/g
[1]; C57BL/6J, lungs, with BMS 470539 (MC1R-specific inhibitor), 0.5 mg co-injected, 1 h p.i. blocked, co-injection of 0.5 mg BMS 470539, read-out: Biodistribution, Lungs
  tissue uptake at 1 h: 0.34 ± 0.13 %ID/g
[1]; C57BL/6J, muscle, with BMS 470539 (MC1R-specific inhibitor), 0.5 mg co-injected, 1 h p.i. blocked, co-injection of 0.5 mg BMS 470539, read-out: Biodistribution, Muscle
  tissue uptake at 1 h: 0.08 ± 0.03 %ID/g
[1]; C57BL/6J, pancreas, with BMS 470539 (MC1R-specific inhibitor), 0.5 mg co-injected, 1 h p.i. blocked, co-injection of 0.5 mg BMS 470539, read-out: Biodistribution, Pancreas
  tissue uptake at 1 h: 0.08 ± 0.01 %ID/g
[1]; C57BL/6J, seminal glands, with BMS 470539 (MC1R-specific inhibitor), 0.5 mg co-injected, 1 h p.i. blocked, co-injection of 0.5 mg BMS 470539, read-out: Biodistribution, Seminal glands
  tissue uptake at 1 h: 0.07 ± 0.03 %ID/g
[1]; C57BL/6J, spleen, with BMS 470539 (MC1R-specific inhibitor), 0.5 mg co-injected, 1 h p.i. blocked, co-injection of 0.5 mg BMS 470539, read-out: Biodistribution, Spleen
  tissue uptake at 1 h: 0.52 ± 0.28 %ID/g
[1]; C57BL/6J, stomach, with BMS 470539 (MC1R-specific inhibitor), 0.5 mg co-injected, 1 h p.i. blocked, co-injection of 0.5 mg BMS 470539, read-out: Biodistribution, Stomach
  tissue uptake at 1 h: 0.19 ± 0.12 %ID/g
[1]; C57BL/6J, testes, with BMS 470539 (MC1R-specific inhibitor), 0.5 mg co-injected, 1 h p.i. blocked, co-injection of 0.5 mg BMS 470539, read-out: Biodistribution, Testes
  tissue uptake at 1 h: 0.1 ± 0.02 %ID/g
[1]; C57BL/6J, thyroid, with BMS 470539 (MC1R-specific inhibitor), 0.5 mg co-injected, 1 h p.i. blocked, co-injection of 0.5 mg BMS 470539, read-out: Biodistribution, Thyroid
  tissue uptake at 1 h: 0.13 ± 0.05 %ID/g
[1]; C57BL/6J, whole blood, with BMS 470539 (MC1R-specific inhibitor), 0.5 mg co-injected, 1 h p.i. blocked, co-injection of 0.5 mg BMS 470539, read-out: Biodistribution, Blood
  tissue uptake at 1 h: 0.27 ± 0.04 %ID/g
[1]; adrenal glands, 1 h p.i. unblocked, C57BL/6J mice, B16F10 melanoma, read-out: Biodistribution, Adrenal glands
  tissue uptake at 1 h: 0.71 ± 0.67 %ID/g
[1]; adrenal glands, C57BL/6J mice, B16F10 melanoma, read-out: Biodistribution, Adrenal glands
  tissue uptake at 2 h: 0.33 ± 0.19 %ID/g
[1]; bone, 1 h p.i. unblocked, C57BL/6J mice, B16F10 melanoma, read-out: Biodistribution, Bone
  tissue uptake at 1 h: 0.32 ± 0.16 %ID/g
[1]; bone, C57BL/6J mice, B16F10 melanoma, read-out: Biodistribution, Bone
  tissue uptake at 2 h: 0.1 ± 0.03 %ID/g
[1]; brain, 1 h p.i. unblocked, C57BL/6J mice, B16F10 melanoma, read-out: Biodistribution, Brain
  tissue uptake at 1 h: 0.05 ± 0.04 %ID/g
[1]; brain, C57BL/6J mice, B16F10 melanoma, read-out: Biodistribution, Brain
  tissue uptake at 2 h: 0.01 %ID/g
[1]; fat, 1 h p.i. unblocked, C57BL/6J mice, B16F10 melanoma, read-out: Biodistribution, Fat
  tissue uptake at 1 h: 0.09 ± 0.04 %ID/g
[1]; fat, C57BL/6J mice, B16F10 melanoma, read-out: Biodistribution, Fat
  tissue uptake at 2 h: 0.02 ± 0.01 %ID/g
[1]; heart, 1 h p.i. unblocked, C57BL/6J mice, B16F10 melanoma, read-out: Biodistribution, Heart
  tissue uptake at 1 h: 0.26 ± 0.07 %ID/g
[1]; heart, C57BL/6J mice, B16F10 melanoma, read-out: Biodistribution, Heart
  tissue uptake at 2 h: 0.08 ± 0.01 %ID/g
[1]; intestine, 1 h p.i. unblocked, C57BL/6J mice, B16F10 melanoma, read-out: Biodistribution, Intestine
  tissue uptake at 1 h: 0.37 ± 0.11 %ID/g
[1]; intestine, C57BL/6J mice, B16F10 melanoma, read-out: Biodistribution, Intestine
  tissue uptake at 2 h: 0.53 ± 0.38 %ID/g
[1]; kidneys, 1 h p.i. unblocked, C57BL/6J mice, B16F10 melanoma, read-out: Biodistribution, Kidneys
  tissue uptake at 1 h: 5.98 ± 1.24 %ID/g
[1]; kidneys, C57BL/6J mice, B16F10 melanoma, read-out: Biodistribution, Kidneys
  tissue uptake at 2 h: 4.42 ± 0.55 %ID/g
[1]; liver, 1 h p.i. unblocked, C57BL/6J mice, B16F10 melanoma, read-out: Biodistribution, Liver
  tissue uptake at 1 h: 0.54 ± 0.07 %ID/g
[1]; liver, C57BL/6J mice, B16F10 melanoma, read-out: Biodistribution, Liver
  tissue uptake at 2 h: 0.44 ± 0.08 %ID/g
[1]; lungs, 1 h p.i. unblocked, C57BL/6J mice, B16F10 melanoma, read-out: Biodistribution, Lungs
  tissue uptake at 1 h: 0.74 ± 0.14 %ID/g
[1]; lungs, C57BL/6J mice, B16F10 melanoma, read-out: Biodistribution, Lungs
  tissue uptake at 2 h: 0.31 ± 0.05 %ID/g
[1]; muscle, 1 h p.i. unblocked, C57BL/6J mice, B16F10 melanoma, read-out: Biodistribution, Muscle
  tissue uptake at 1 h: 0.17 ± 0.05 %ID/g
[1]; muscle, C57BL/6J mice, B16F10 melanoma, read-out: Biodistribution, Muscle
  tissue uptake at 2 h: 0.04 %ID/g
[1]; pancreas, 1 h p.i. unblocked, C57BL/6J mice, B16F10 melanoma, read-out: Biodistribution, Pancreas
  tissue uptake at 1 h: 0.17 ± 0.04 %ID/g
[1]; pancreas, C57BL/6J mice, B16F10 melanoma, read-out: Biodistribution, Pancreas
  tissue uptake at 2 h: 0.07 ± 0.01 %ID/g
[1]; seminal glands, 1 h p.i. unblocked, C57BL/6J mice, B16F10 melanoma, read-out: Biodistribution, Seminal glands
  tissue uptake at 1 h: 0.11 ± 0.05 %ID/g
[1]; seminal glands, C57BL/6J mice, B16F10 melanoma, read-out: Biodistribution, Seminal glands
  tissue uptake at 2 h: 0.04 ± 0.01 %ID/g
[1]; spleen, 1 h p.i. unblocked, C57BL/6J mice, B16F10 melanoma, read-out: Biodistribution, Spleen
  tissue uptake at 1 h: 0.35 ± 0.07 %ID/g
[1]; spleen, C57BL/6J mice, B16F10 melanoma, read-out: Biodistribution, Spleen
  tissue uptake at 2 h: 0.19 ± 0.03 %ID/g
[1]; stomach, 1 h p.i. unblocked, C57BL/6J mice, B16F10 melanoma, read-out: Biodistribution, Stomach
  tissue uptake at 1 h: 0.26 ± 0.15 %ID/g
[1]; stomach, C57BL/6J mice, B16F10 melanoma, read-out: Biodistribution, Stomach
  tissue uptake at 2 h: 0.2 ± 0.16 %ID/g
[1]; testes, 1 h p.i. unblocked, C57BL/6J mice, B16F10 melanoma, read-out: Biodistribution, Testes
  tissue uptake at 1 h: 0.21 ± 0.06 %ID/g
[1]; testes, C57BL/6J mice, B16F10 melanoma, read-out: Biodistribution, Testes
  tissue uptake at 2 h: 0.07 ± 0.01 %ID/g
[1]; thyroid, 1 h p.i. unblocked, C57BL/6J mice, B16F10 melanoma, read-out: Biodistribution, Thyroid
  tissue uptake at 1 h: 0.31 ± 0.08 %ID/g
[1]; thyroid, C57BL/6J mice, B16F10 melanoma, read-out: Biodistribution, Thyroid
  tissue uptake at 2 h: 0.16 ± 0.03 %ID/g
[1]; whole blood, 1 h p.i. unblocked, C57BL/6J mice, B16F10 melanoma, read-out: Biodistribution, Blood
  tissue uptake at 1 h: 0.7 ± 0.15 %ID/g
[1]; whole blood, C57BL/6J mice, B16F10 melanoma, read-out: Biodistribution, Blood
  tissue uptake at 2 h: 0.19 ± 0.01 %ID/g
B16-F10 tumours; 1 h and 2 h p.i.
  Tumour visualization on PET images: Tumours were clearly visualized
B16-F10 tumours; 1 h p.i., 0.5 mg BMS 470539
  Tumour uptake on PET with co-injection of MC1R-specific inhibitor BMS 470539: tumour uptake was abolished
